Measured values from publication PMC11904221 (EMBO Molecular Medicine, 2025).
Several values for one entry are separate records, joined by “and”; a condition that tells them apart may be missing. Equal values may be shown once.

What was measured:
MDA-MB-231 tumors = assay: Tumor blood flow, laser Doppler, MDA-MB-231 tumors; format: in vivo, mouse; details: Bevacizumab 5 (mg/Kg), individual values
Excerpt: (§1) Tumor growth, apoptosis, proliferation, and/or the angiogenic index of the developed tumors were first evaluated.
(§2) (A) Scheme and workflow of apelin-dm preclinic studies. […] (B–D) Error bars indicate s.e.m. center values indicate mean (Mann–Whitney U test). […] The percentage of relative staining intensity corresponding to CD31, Ki67, and BIM expression in CT-26 and MC-38 tumors of treated mice are shown in (I–N). Scale bar, 100 µm. Data represent mean ± s.e.m. of 3–4 independent experiments. P values were calculated with the Student t test in GraphPad. […] Quantification of tumor area (P) and vascularized area (Q) relative to control untreated CAMs (n = 3 CAM per group) assigned 100%. Data represent mean ± s.e.m. P values were calculated with the Student t test in GraphPad. […] (S, T) The average blood flow expressed in % relative to blood flow measured in […] (S) and MDA-MB231 (T) developed tumors. Data represent mean ± s.e.m. of 3–4 independent experiments. P values were calculated with the Student t test in GraphPad. Source data are available online for this figure.
(§3) Additional experiments involved injecting 1 × 10^6 control CT-26/MC-38/MDA-MB231 cells into BALB/c, C57BL/6, or nude mice, respectively. […] LASER Doppler imaging assessed total blood flow, with FlowR® Hemodynamics visualization used for analysis. Results were expressed as % relative to pre-treatment tumor blood flow.

HUVEC [1] = assay: Tube-like formation assay; details: read-out: EC50 (reduction of 50% of junction number); HUVEC on Geltrex, 18h treatment, 5 nM to 5 μM, GraphPad Prism
HCT116 tumors = assay: Tumor blood flow, laser Doppler, HCT116 tumors; format: in vivo, mouse; details: Bevacizumab 5 (mg/Kg), individual values
Excerpt: as §1, §2, §3

[2] = tested on: aortic ring microvessel sprouting; assay: Aortic ring assay; design: species or system mouse; details: 100 nM, VEGF 30 ng/ml
Excerpt: Angiogenesis is a complex intercellular process involving the organization of various cells.

[3] = in vitro and in CAM assays; ref Ljoki et al, 2022; Ademi et al, 2021; cited from earlier work
HUVEC [4] = assay: HUVEC proliferation with VEGF, IncuCyte confluence; format: cell-based, human
Excerpt: Red arrows indicate the direction of vessel formation. […] All data are representative of three independent experiments. […] The two Furin cleavage sites are shown. […] (S–U) Plasmon waveguide resonance (PWR). […] Source data are available online for this figure.

ERK = details: VEGF 30ng/mL, apelin-dm 100 nM, individual values n = 3
HUVEC [5] = assay: VEGF-induced migration of HUVECs; format: cell-based, human; details: VEGF 30 ng/ml, apelin-dm 100 nM, individual values; control column 95-118

Substance | tumor blood flow, % relative (MDA-MB-231 tumors) | EC50 (HUVEC [1]) | tumor blood flow, % relative (HCT116 tumors) | VEGF-induced aortic ring sprouting [2] | concentration with inhibitory effects [3] | HUVEC confluence (HUVEC [4]; 0 h, VEGF 30 ng/ml or apelin-dm 100 nM, means, n = 6 wells) | HUVEC confluence (HUVEC [4]; 24 h) | HUVEC confluence (HUVEC [4]; 48 h) | HUVEC confluence (HUVEC [4]; 72 h) | HUVEC confluence (HUVEC [4]; 96 h) | HUVEC confluence (HUVEC [4]; 120 h) | ERK phosphorylation relative to control untreated HUVEC assigned 100% (ERK) | HUVEC migration (HUVEC [5])
Bevacizumab | 82 and 75 and 69 and 51 | 83 nM and 130 nM | 86 and 65 and 70 and 63 and 59 | apelin-dm was comparable in effect to Bevacizumab | around 100 nM |  |  |  |  |  |  |  | 
VEGF |  |  |  |  |  | 10 | 19 | 33 | 55 | 75 | 82 | 144.293 and 157.045 and 122.733 | 160 and 250 and 188 and 208 and 299 and 320 and 199
